In patent US8877940B2, “Antibiotic tolerance inhibitors” (Institut National de la Recherche Scientifique, priority 2011, dated 2014):

Key:
[1] = system: pyocyanin, an MvfR-regulated virulence factor, P. aeruginosa PA14; test: Quantification of pyocyanin (OD520nm of chloroform-extracted cultures); format: cell-based, Pseudomonas aeruginosa; conditions: for reduction / inhibition of pyocyanin: very low concentrations, nanomolar range; for pyocyanin levels: twelve of the 17 HAQ-lowering hits, vs control
Description: Pyocyanin levels were determined by measuring OD520nm of chloroform-extracted cultures.
Compounds were tested at various concentrations for their impact on 4-hydroxy-2-alkylquinoline (HAQ) levels, including the MvfR ligands 4-hydroxy-2-heptylquinoline (HHQ) and 3,4-dihydroxy-2-heptylquinoline (PQS), as well as 2-n-heptyl-4-hydroxyquinoline-N-oxide (HQNO) and 2,4-dihydroxyquinoline (DHQ) (FIGS. 2A-2C). Levels of the phenazine, pyocyanin, an MvfR-regulated virulence factor, were also determined.

[2] = system: 4-hydroxy-2-alkylquinoline (HAQ) levels, P. aeruginosa PA14 (MvfR regulon); format: cell-based, Pseudomonas aeruginosa; conditions: for HAQ production / HAQ inhibition / activity (impacts on HAQ and pyocyanin levels), structure-activity comparison: tested at 10 μM; for reduction / inhibition of HAQs: very low concentrations, nanomolar range; for concentration at which compound was effective (decreased HAQ levels), as low as: among the seventeen HAQ-lowering hits
[3] = system: ΔmvfR mutant constitutively expressing the pqsABCD genes; test: HAQ production in ΔmvfR mutant constitutively expressing pqsABCD (LC/MS); format: cell-based, Pseudomonas aeruginosa; conditions: 100 μM inhibitor
Text: However, since these compounds diminish or abolish P. aeruginosa HAQ production, it is possible that they target either the MvfR protein itself or enzymes in the pqs operon that are required for HAQ synthesis. To further understand the target(s) of these compounds, a ΔmvfR mutant constitutively expressing the pqsABCD genes was used. This strain is capable of synthesizing HHQ, HQNO, PQS and DHQ independently of MvfR. […] Since PqsA and PqsD are necessary and sufficient for DHQ production, it is possible that these inhibitors target either PqsB or PqsC enzymes, which are required for HHQ and PQS production.

[4] = system: Raw264.7 macrophage cells infected with PA14; test: Viability of PA14-infected macrophage cells (MTT assay); format: cell-based; conditions: PA14 MOI 100, 3 h, 100 μM compound
Description: Raw264.7 macrophage cells were cultured in Dulbecco's modified eagles medium (DMEM) containing 10% FCS, 2 mM glutamine and antibiotic-antimycotic solutions. Before infections cells were washed with PBS (without Mg2+ and Ca2+) and antibiotic-free medium was used for infections. The cells were infected with PA14 and PA14 isolates grown in the presence of compounds at an MOI of 100 for 3 h at 37° C. in a 5% CO2 atmosphere. During infections cells were incubated with 100 μM of compounds as well. After 3 hours of PA14 infection, the cells were washed and incubated with DMEM medium containing polymixin B and gentamicin in order to kill the extracellular bacteria. The viability of Raw264.7 was assessed using the MTT assay, which detects the early sign of eukaryotic cell death. The formazan crystals formed in viable, metabolically active cells were dissolved by the addition of 100 μl DMSO and optical density was measured at 570 nm in a microplate reader.
In order to determine whether or not the potent inhibitors are cytotoxic in eukaryotes, Raw 264.7 macrophage cells were exposed to selected compounds. No significant cytotoxicity was observed following compound exposure for 3 hours compared to the DMSO solvent control (FIG. 6A). The cytotoxicity of the macrophage cells was also determined when infected with PA14 bacterial cells alone or in the presence of the compounds.

P. aeruginosa PA14 = test: Murine burn and infection model, M64 plus ciprofloxacin; format: in vivo, DC-1 mice; conditions: IV at 6, 20, 28, 40, 60, 68 and 80 h; M64 100 μM (4 mg/Kg), ciprofloxacin 0.4 mg/Kg; 7 days; un-injected controls 30%
Description: A murine thermal injury model (Stevens et al., J Burn Care Rehabil. 1994; 15:232-235) was used as previously described to further assess bacterial pathogenicity in 6-wk-old DC-1 mice (Rahme et al., Science, 268(5219): p. 1899-902 (1995)) in the presence of combination of Ciprofloxacin (Bayer AG) and M64. Following mouse anesthetization, a full-thickness thermal burn injury involving 5%-8% of the body surface area was produced on the dermis of the shaved abdomen, and an inoculum of about 6-7×10^3 PA14 cells was injected intradermally into the burn eschar along with DMSO or 100 μM M64 compound. 100 μM (4 mg/Kg) of M64, 0.4 mg/Kg of ciprofloxacin (lower than the recommended dose of 10 mg/Kg), or a combination of M64+ciproflocaxin was also injected IV via tail vein at 6, 20, 28, 40, 60, 68 h and 80 h post-infection. Mice survival was subsequently assessed over the course of 7 days. Ten animals per treatment were used. In this set of experiments the concentration of ciprofloxacin used was lower than the therapeutic levels recommended to permit assessment of the possible synergistic effect between M64 and ciprofloxacin.

O=C(CSc1nc2ccccc2[nH]1)Nc1ccccc1 [Compound M56, 2-((1H-benzo[d]imidazol-2-yl)thio)-N-phenylacetamide]
pyocyanin production ([1]; tested at 10 μM): little impact
HAQ production / HAQ inhibition [2]: little impact

O=C(CSc1nc2ccc([N+](=O)[O-])cc2[nH]1)Nc1ccc(OC(F)(F)F)cc1 [Compound M58, 2-((6-nitro-1H-benzo[d]imidazol-2-yl)thio)-N-(4-(trifluoromethoxy)phenyl)acetamide]
activity (impacts on HAQ and pyocyanin levels), structure-activity comparison [2]: most active
HAQ levels compared to the solvent control [3]: intermediate phenotype

COc1ccccc1NC(=O)CSc1nc2ccc([N+](=O)[O-])cc2[nH]1 [Compound M53, N-(2-methoxyphenyl)-2-((6-nitro-1H-benzo[d]imidazol-2-yl)thio)acetamide]
activity (impacts on HAQ and pyocyanin levels), structure-activity comparison [2]: not very active
HAQ levels compared to the solvent control [3]: do not significantly alter HAQ levels

COc1ccc(NC(=O)CSc2nc3ccc([N+](=O)[O-])cc3[nH]2)cc1 [Compound M61, N-(4-methoxyphenyl)-2-((6-nitro-1H-benzo[d]imidazol-2-yl)thio)acetamide]
activity (impacts on HAQ and pyocyanin levels), structure-activity comparison [2]: most active
HAQ levels compared to the solvent control [3]: do not significantly alter HAQ levels

O=C(CSc1nc2ccc([N+](=O)[O-])cc2[nH]1)Nc1ccc(Br)cc1 [Compound M50, N-(4-bromophenyl)-2-((6-nitro-1H-benzo[d]imidazol-2-yl)thio)acetamide]
reduction of PA14-induced cytotoxicity [4]: effectively reduced cytotoxicity
reduction / inhibition of pyocyanin [1]: considerably inhibited
activity (impacts on HAQ and pyocyanin levels), structure-activity comparison [2]: most active
reduction / inhibition of HAQs [2]: considerably inhibited
HAQ levels compared to the solvent control [3]: do not significantly alter HAQ levels

O=C(O)c1cn(C2CC2)c2cc(N3CCNCC3)c(F)cc2c1=O [ciprofloxacin, reference compound]
survival rate (P. aeruginosa PA14): 80%

CSc1cccc(NC(=O)CSc2nc3ccccc3[nH]2)c1 [Compound M4, 2-((1H-benzo[d]imidazol-2-yl)thio)-N-(3-(methylthio)phenyl)acetamide]
concentration at which compound was effective (decreased HAQ levels), as low as [2]: 10 µM
HAQ production / HAQ inhibition [2]: improved HAQ inhibition
DHQ level [3]: increased
HHQ and HQNO levels [3]: reduced

CCc1ccc(NC(=O)CSc2nc3ccc(C)cc3[nH]2)cc1 [Compound M23, N-(4-ethylphenyl)-2-((6-methyl-1H-benzo[d]imidazol-2-yl)thio)acetamide]
pyocyanin levels [1]: less than half of the control
activity (impacts on HAQ and pyocyanin levels), structure-activity comparison [2]: moderately active
DHQ level [3]: increased
HHQ and HQNO levels [3]: reduced

O=C(CSc1nc2ccc([N+](=O)[O-])cc2[nH]1)Nc1ccc(I)cc1 [Compound M59, N-(4-iodophenyl)-2-((6-nitro-1H-benzo[d]imidazol-2-yl)thio)acetamide]
reduction / inhibition of pyocyanin [1]: considerably inhibited
activity (impacts on HAQ and pyocyanin levels), structure-activity comparison [2]: most active
reduction / inhibition of HAQs [2]: considerably inhibited
HAQ levels compared to the solvent control [3]: intermediate phenotype

COc1ccc(NC(=O)CSc2nc3ccc([N+](=O)[O-])cc3[nH]2)c(OC)c1 [Compound M34, N-(2,4-dimethoxyphenyl)-2-((6-nitro-1H-benzo[d]imidazol-2-yl)thio)acetamide]
pyocyanin levels [1]: less than half of the control
concentration at which compound was effective (decreased HAQ levels), as low as [2]: 10 µM
activity (impacts on HAQ and pyocyanin levels), structure-activity comparison [2]: quite active
HAQ levels compared to the solvent control [3]: do not significantly alter HAQ levels

O=C(CSc1nc2ccc(NC(=O)C(F)(F)F)cc2[nH]1)Nc1ccc(I)cc1 [Compound M63, 2,2,2-trifluoro-N-(2-((2-((4-iodophenyl)amino)-2-oxoethyl)thio)-1H-benzo[d]imidazol-6-yl)acetamide]
activity (impacts on HAQ and pyocyanin levels), structure-activity comparison [2]: inactive

O=C(CSc1nc2ccccc2[nH]1)Nc1ccc(Cl)c(Cl)c1 [Compound M22, 2-((1H-benzo[d]imidazol-2-yl)thio)-N-(3,4-dichlorophenyl)acetamide]
activity (impacts on HAQ and pyocyanin levels), structure-activity comparison [2]: decreased the activity as compared to M26

O=C(CSc1nc2ccc([N+](=O)[O-])cc2[nH]1)Nc1ccc(Cl)cc1 [Compound M51, N-(4-chlorophenyl)-2-((6-nitro-1H-benzo[d]imidazol-2-yl)thio)acetamide]
activity (impacts on HAQ and pyocyanin levels), structure-activity comparison [2]: most active
HAQ levels compared to the solvent control [3]: intermediate phenotype

O=C(CSc1nc2ccccc2[nH]1)Nc1ccc(Br)cc1 [Compound M55, 2-((1H-benzo[d]imidazol-2-yl)thio)-N-(4-bromophenyl)acetamide]
activity (impacts on HAQ and pyocyanin levels), structure-activity comparison [2]: active compounds
DHQ level [3]: increased
HHQ and HQNO levels [3]: reduced

COc1ccccc1NC(=O)CSc1nc2ccccc2[nH]1 [Compound M46, 2-((1H-benzo[d]imidazol-2-yl)thio)-N-(2-methoxyphenyl)acetamide]
activity (impacts on HAQ and pyocyanin levels), structure-activity comparison [2]: did not improve the activity

O=C(CSc1nc2ccccc2[nH]1)Nc1ccc([N+](=O)[O-])cc1 [Compound M45, 2-((1H-benzo[d]imidazol-2-yl)thio)-N-(4-nitrophenyl)acetamide]
activity (impacts on HAQ and pyocyanin levels), structure-activity comparison [2]: did not improve the activity

N#Cc1ccc(NC(=O)CSc2nc3ccccc3[nH]2)cc1 [Compound B1, 2-((1H-benzo[d]imidazol-2-yl)thio)-N-(4-cyanophenyl)acetamide]
pyocyanin levels [1]: less than half of the control
activity (impacts on HAQ and pyocyanin levels), structure-activity comparison [2]: active compounds
HAQ levels compared to the solvent control [3]: intermediate phenotype

CC(C)c1ccc(NC(=O)CSc2nc3ccccc3[nH]2)cc1 [Compound M49, 2-((1H-benzo[d]imidazol-2-yl)thio)-N-(4-isopropylphenyl)acetamide]
activity (impacts on HAQ and pyocyanin levels), structure-activity comparison [2]: more active compound

COc1ccc2nc(SCC(=O)Nc3ccc(Cl)c(Cl)c3)[nH]c2c1 [Compound M24, N-(3,4-dichlorophenyl)-2-((6-methoxy-1H-benzo[d]imidazol-2-yl)thio)acetamide]
activity (impacts on HAQ and pyocyanin levels), structure-activity comparison [2]: decreased the activity

CC(=O)Nc1ccc2nc(SCC(=O)Nc3ccc(I)cc3)[nH]c2c1 [Compound M65, 2-((6-acetamido-1H-benzo[d]imidazol-2-yl)thio)-N-(4-iodophenyl)acetamide]
activity (impacts on HAQ and pyocyanin levels), structure-activity comparison [2]: inactive

Cc1ccc2nc(SCC(=O)Nc3ccc(Br)cc3)[nH]c2c1 [Compound M27, N-(4-bromophenyl)-2-((6-methyl-1H-benzo[d]imidazol-2-yl)thio)acetamide]
reduction of PA14-induced cytotoxicity [4]: effectively reduced cytotoxicity
pyocyanin levels [1]: less than half of the control
concentration at which compound was effective (decreased HAQ levels), as low as [2]: 10 µM
activity (impacts on HAQ and pyocyanin levels), structure-activity comparison [2]: more active than M55
DHQ level [3]: increased
HHQ and HQNO levels [3]: reduced

N#Cc1ccc(NC(=O)CSc2nc3ccc([N+](=O)[O-])cc3[nH]2)cc1 [Compound M62, N-(4-cyanophenyl)-2-((6-nitro-1H-benzo[d]imidazol-2-yl)thio)acetamide]
reduction of PA14-induced cytotoxicity [4]: effectively reduced cytotoxicity
activity (impacts on HAQ and pyocyanin levels), structure-activity comparison [2]: most active
HAQ levels compared to the solvent control [3]: do not significantly alter HAQ levels

O=C(CSc1nc2ccccc2[nH]1)Nc1ccc(Cl)cc1 [Compound M26, 2-((1H-benzo[d]imidazol-2-yl)thio)-N-(4-chlorophenyl)acetamide]
pyocyanin levels [1]: less than half of the control
concentration at which compound was effective (decreased HAQ levels), as low as [2]: 10 µM
activity (impacts on HAQ and pyocyanin levels), structure-activity comparison [2]: active compounds
DHQ level [3]: increased
HHQ and HQNO levels [3]: reduced
